Here are results for five molecules from patent US8222218B2, “Cyclopropanated carbohydrates” (Seton Hall University, priority 2008, dated 2012).

Like-named read-outs stand apart in the source and are kept apart here.

The subject of series [1] is MES-induced seizures. The series can be described thus: Maximal Electroshock Seizure (MES) test, mice. It counts as in vivo. To be noted: Mus musculus, ip, mice, i.p. The gist of the method:
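Seizures were induced by a 60 Hz corneal current for 2 s (50 mA in CF1 mice, 150 mA in Sprague-Dawley rats). Mice received 30, 100 or 300 mg/kg i.p. in 0.5% methylcellulose and were tested at several intervals; rats received 30 mg/kg p.o. Protection means abolition of hind-limb tonic extension.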
Background: The maximal electroshock test induces tonic seizures with an electrical stimulus.

The test system of series [2] is metrazole-induced clonic seizures. Nature of the series: Subcutaneous Metrazole Seizure Threshold Test (scMET), mice. Conditions: Mus musculus, sc, mice. It counts as in vivo. In short, it runs like this:
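CF1 mice dosed with test compound at 30, 100 and 300 mg/kg; Sprague-Dawley rats at 50 mg/kg p.o. At compound TPE, metrazole at CD97 (85 mg/kg in mice) injected s.c. in the neck. Animals observed 30 min; endpoint is a 3-5 s clonic spasm episode.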

Series [3] in a line: Acute toxicity, minimal motor impairment (rotorod), mice. It counts as in vivo. To be noted: mice, rotorod. In short, it runs like this:
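Mice placed on a rod rotating at 6 rpm; a compound is scored toxic when the animal falls off three times within 1 min. In rats, minimal motor deficit is scored as ataxia, an abnormal uncoordinated gait.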

The target of series [4] is T1, cloned, human D1 receptor (Homo sapiens, UniProt P21728).
T1 construct: expressed in transfected cells
T1 sequence (P21728 whole entry): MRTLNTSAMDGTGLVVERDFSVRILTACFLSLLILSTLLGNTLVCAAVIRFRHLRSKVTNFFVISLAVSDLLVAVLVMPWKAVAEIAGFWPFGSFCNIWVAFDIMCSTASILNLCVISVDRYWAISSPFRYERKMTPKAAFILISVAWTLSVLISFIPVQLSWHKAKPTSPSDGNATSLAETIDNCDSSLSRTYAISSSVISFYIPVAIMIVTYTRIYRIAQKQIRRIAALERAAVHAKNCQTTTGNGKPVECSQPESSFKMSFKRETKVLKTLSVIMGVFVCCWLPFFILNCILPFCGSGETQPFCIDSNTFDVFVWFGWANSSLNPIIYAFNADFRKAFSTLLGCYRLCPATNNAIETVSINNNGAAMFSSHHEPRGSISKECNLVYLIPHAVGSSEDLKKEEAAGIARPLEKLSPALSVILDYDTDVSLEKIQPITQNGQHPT
The series can be described thus: Radioligand competition binding assay, [3H]SCH23390. From the text:
Receptor binding profiles were provided by the National Institute of Mental Health's Psychoactive Drug Screening Program, Contract # N01 MH32004 (NIMH PDSP) The NIMH PDSP is directed by Bryan L. Roth M. D., Ph.D. at the University of North Carolina at Chapel Hill and Project Officer Jamie Driscol at NIMH, Bethesda Md., USA. Protocols for receptor-based assays by the PDSP may be found on the website: http://pdsp.med.unc.edu/pdspw/binding.php and http://pdsp.med.unc.edu/pdspw/function.php (Apr. 30, 2008).
Radioligand competition binding assays were performed as previously described (Rothman, R. B., Baumann, M. H., Savage, J. E., Rauser, L., McBride, Hufeisen, S. J., Roth B. L. Circulation (2000) 102:2836-2841) for Compounds 7 and 16. Briefly, test compounds were dissolved to 10 mM in 100% DMSO, then diluted to the desired concentrations (spanning seven orders of magnitude) in Dopamine Binding Buffer (50 mM NaCl, 50 mM HEPES, 5 mM MgCl2, 0.5 mM EDTA, pH 7.4). Diluted test and reference compounds were added to wells containing radioligand ([^3H]SCH23390, 0.3 nM final concentration) and buffer, then membrane fractions from cells stably expressing cloned, human D1 or D5 receptors were added and binding was allowed to equilibrate at room temperature for 1.5 hours. At equilibrium, reactions were filtered (using a FilterMate 96-well harvester, PerkinElmer) onto GF-A glass fiber filters (Wallac) and allowed to dry. Meltilex scintillant (Wallac) was melted onto the dry filters, and then allowed to cool. Filters were then sealed in plastic bags and counted on a Wallac TriLux microbeta counter.
Raw data (dpm) representing total radioligand binding (i.e., specific+non-specific binding) were plotted as a function of the logarithm of the molar concentration of the competitor (i.e., test or reference compound). Non-linear regression of the normalized (i.e., percent radioligand binding compared to that observed in the absence of test or reference compound) raw data is performed in Prism 4.0 (GraphPad Software) using the built-in three parameter logistic model describing ligand competition binding to radioligand-labeled sites: y=bottom+[(top−bottom)/(1+10^x−logIC50)] where bottom equals the residual radioligand binding measured in the presence of 10 μM reference compound (i.e., non-specific binding) and top equals the total radioligand binding observed in the absence of competitor. The log IC50 (i.e., the log of the ligand concentration that reduces radioligand binding by 50%) is thus estimated from the data and used to obtain the Ki by applying the Cheng-Prusoff approximation: Ki=IC50/(1+[ligand]/KD) where [ligand] equals the assay radioligand concentration and KD equals the affinity constant of the radioligand for the target receptor.

Series [5] has as its system metabotropic glutamate receptors. To be noted: background; cited from earlier work.
The conditions of series [6]: background, previously made and tested; cited from earlier work.

Regarding `CCOC(=O)C1[C@H]2O[C@@H]3COC(C)(C)O[C@H]3C(=NO)[C@@H]12` (stereo partly drawn) [Compound 7, ethyl (4aR,5aS,6aR,7aS)-7-(hydroxyimino)-2,2-dimethylhexahydro-4H-cyclopropa[5,6]pyrano[3,2-d][1,3]dioxine-6-carboxylate], the responders at 30 mg/kg in series [1] (0.5 h, read-out: MES 30 0.5 h (animals protected/tested)) worked out at 0%; in series [1] (4 h, read-out: MES 30 4 h (animals protected/tested)) it was 0%; in series [2] (0.4 h, read-out: scMET 30 0.4 h (animals protected/tested)), 0%; in series [2] (0.5 h, read-out: scMET 30 0.5 h (animals protected/tested)), 0%. Also, the responders at 100 mg/kg in series [1] (0.5 h, read-out: MES 100 0.5 h (animals protected/tested)) turned out to be 0%; in series [1] (4 h, read-out: MES 100 4 h (animals protected/tested)) it was 0%; in series [2] (0.4 h, read-out: scMET 100 0.4 h (animals protected/tested)) it was 0%; in series [2] (0.5 h, read-out: scMET 100 0.5 h (animals protected/tested)) it was 0%. Further, the responders at 300 mg/kg in series [1] (0.5 h, read-out: MES 300 0.5 h (animals protected/tested)) turned out to be 0%; in series [1] (4 h, read-out: MES 300 4 h (animals protected/tested)), 0%; in series [2] (0.4 h, read-out: scMET 300 0.4 h (animals protected/tested)), 0%; in series [2] (0.5 h, read-out: scMET 300 0.5 h (animals protected/tested)), 0%. The “TOX 30 0.5 h (animals toxic/tested)” value in series [3] (30 mg/kg, 0.5 h) is given as 0/4. For the same molecule, the “TOX 30 4 h (animals toxic/tested)” value in series [3] (30 mg/kg, 4 h) is 0/2. For the same molecule, the “TOX 100 0.5 h (animals toxic/tested)” value in series [3] (100 mg/kg, 0.5 h) is listed as 1/8. Moreover, the “TOX 100 4 h (animals toxic/tested)” value in series [3] (100 mg/kg, 4 h) was 0/4. The “TOX 300 0.5 h (animals toxic/tested)” value in series [3] (300 mg/kg, 0.5 h) is on record as 3/4. Also, in series [3] (300 mg/kg, 4 h), the “TOX 300 4 h (animals toxic/tested)” value is listed as 1/2. The Ki – broadly, the equilibrium dissociation constant of an inhibitor or competing ligand from its target – in series [4] (D1 dopamine receptor, [3H]SCH23390 0.3 nM, Cheng-Prusoff) is 6.23 µM. Further, the “inhibition of the D1 dopamine receptor” value in series [4] (radioligand competition binding) is given as “significant inhibition”.

On to “7-(hydroxyimino)cyclopropa[b]chromen-1a-carboxylate [Compound C]”, for which the “agonist activity at metabotropic glutamate receptors” value in series [5] is reported as “active agonists”.

For the molecule `CNS(=O)(=O)OC[C@@]12OC[C@H]3OC(C)(C)O[C@H]3[C@@H]1OC(C)(C)O2` [A], in series [6], the “anticonvulsant activity” value is on record as “moderate anticonvulsant activity”.

In the case of `CC1(C)OC[C@@H]2O[C@@]3(COS(N)(=O)=O)OC(C)(C)O[C@H]3[C@@H]2O1` [B], the “anticonvulsant activity” value in series [6] is reported as “moderate anticonvulsant activity”.

Turning to `CC1(C)O[C@@H]2[C@@H](CO[C@@]3(COS(N)(=O)=O)OC(C)(C)O[C@@H]23)O1` [topiramate], in series [6], the “anticonvulsant activity” value is on record as “greater anticonvulsant activity”.
